Where “and” joins values, the source holds several entries; their conditions need not be identical. Equal entries are not always repeated.
Columns and labels:
PRDM1 = PRDM1 (Homo sapiens, UniProt O75626); test: DSF thermal stabilisation, PRDM selectivity; type: binding; conditions: 250 µM MRK-740; 2 mM SAM
Method: (§1) DSF measurements were performed as previously described[21] using a Light Cycler 480 II instrument from Roche Applied Science. All proteins tested in these selectivity experiments were used at final concentration of 0.02 mg mL^−1 in a 0.1 M HEPES, pH 7.5 and 150 mM NaCl buffer in the presence of 2 mM SAM. Sypro Orange was purchased from Invitrogen as a 5000 × stock solution (concentration not specified by vendor) and was diluted 1:1000 to yield a 5 × working concentration. The temperature scan curves were fitted to a Boltzmann sigmoid function, and the Tm values were obtained from the midpoint of the transition.

PRDM10 = PRDM10 (Homo sapiens, UniProt Q9NQV6); test: DSF thermal stabilisation, PRDM selectivity; type: binding; conditions: 250 µM MRK-740; 2 mM SAM
Method: as §1

PRDM11 = PRDM11 (Homo sapiens, UniProt Q9NQV5); test: DSF thermal stabilisation, PRDM selectivity; type: binding; conditions: 250 µM MRK-740; 2 mM SAM
Method: as §1

PRDM12 = PRDM12 (Homo sapiens, UniProt Q9H4Q4); test: DSF thermal stabilisation, PRDM selectivity; type: binding; conditions: 250 µM MRK-740; 2 mM SAM
Method: as §1

PRDM13 = PRDM13 (Homo sapiens, UniProt Q9H4Q3); test: DSF thermal stabilisation, PRDM selectivity; type: binding; conditions: 250 µM MRK-740; 2 mM SAM
Method: as §1

PRDM14 = PRDM14 (Homo sapiens, UniProt Q9GZV8); test: DSF thermal stabilisation, PRDM selectivity; type: binding; conditions: 250 µM MRK-740; 2 mM SAM
Method: as §1

PRDM16 = PRDM16 (Homo sapiens, UniProt Q9HAZ2); test: DSF thermal stabilisation, PRDM selectivity; type: binding; conditions: 250 µM MRK-740; 2 mM SAM
Method: as §1

PRDM2 = PRDM2 (Homo sapiens, UniProt Q13029); test: DSF thermal stabilisation, PRDM selectivity; type: binding; conditions: 250 µM MRK-740; 2 mM SAM
Method: as §1

PRDM3 = PRDM3 (Homo sapiens, UniProt Q03112); test: DSF thermal stabilisation, PRDM selectivity; type: binding; conditions: 250 µM MRK-740; 2 mM SAM
Method: as §1

PRDM6 = PRDM6 (Homo sapiens, UniProt Q9NQX0); test: DSF thermal stabilisation, PRDM selectivity; type: binding; conditions: 250 µM MRK-740; 2 mM SAM
Method: as §1

PRDM8 = PRDM8 (Homo sapiens, UniProt Q9NQV8); test: DSF thermal stabilisation, PRDM selectivity; type: binding; conditions: 250 µM MRK-740; 2 mM SAM
Method: as §1

Adrenergic α2B [1] = biological target: T1, Adrenergic α2B (Homo sapiens, UniProt P18089); test: Eurofins Panlabs panel, radioligand binding; conditions: at 10 µM
T1 construct: NIMH Psychoactive Drug Screening Program, University of North Carolina at Chapel Hill

Muscarinic M2 = biological target: T2, Muscarinic M2 (Homo sapiens, UniProt P08172); test: Eurofins Panlabs panel, radioligand binding; conditions: at 10 µM
T2 construct: NIMH Psychoactive Drug Screening Program, University of North Carolina at Chapel Hill
T2 sequence (P08172 1-466): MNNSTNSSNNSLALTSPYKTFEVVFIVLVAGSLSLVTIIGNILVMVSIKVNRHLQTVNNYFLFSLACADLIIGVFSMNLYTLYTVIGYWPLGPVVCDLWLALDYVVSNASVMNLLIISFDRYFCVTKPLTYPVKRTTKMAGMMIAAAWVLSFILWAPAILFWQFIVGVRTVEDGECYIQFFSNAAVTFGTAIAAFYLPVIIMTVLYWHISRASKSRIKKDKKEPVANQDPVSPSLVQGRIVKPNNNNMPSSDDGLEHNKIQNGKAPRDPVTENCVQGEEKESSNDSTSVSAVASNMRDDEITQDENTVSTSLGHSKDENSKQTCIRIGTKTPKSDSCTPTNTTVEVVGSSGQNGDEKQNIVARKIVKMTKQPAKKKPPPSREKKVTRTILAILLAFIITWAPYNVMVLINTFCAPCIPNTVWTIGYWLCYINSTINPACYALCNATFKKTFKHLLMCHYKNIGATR

Opiate µ receptor = biological target: T3, Opiate µ receptor (Homo sapiens, UniProt P35372); test: Eurofins Panlabs panel, radioligand binding; conditions: at 10 µM
T3 construct: Eurofins Panlabs Discovery Services, Taiwan

Adrenergic α2B [2] = biological target: T1, Adrenergic α2B; test: GPCR functional activity, GloSensor assay (agonist and antagonist mode); type: cell-based
Excerpt: (§2) Supplementary Figure 5. Assessment of GPCR functional activity. […]
(§3) profiles were generously provided by the National Institute of Mental Health’s (NIMH)
(§4) Psychoactive Drug Screening Program, (Contract # HHSN-271-2013-00017-C) directed by B.L.
(§5) Roth, University of North Carolina at Chapel Hill and Project Officer J. Driscoll at NIMH,
(§6) Bethesda, Maryland, USA. Further details available at https://pdspdb.unc.edu/pdspWeb/.
(§7) MOR stands for “Opiate µ receptor”. […]
(§8) […] Source data are provided as a

Opiate µ receptor (MOR) = biological target: T4, Opiate µ receptor (MOR) (Homo sapiens, UniProt P35372); test: as above; type: cell-based; conditions: for MOR Gi Agonist, raw signal: replicates 1-3; for MOR Tango Antagonist, raw signal: replicates 1-4
T4 construct: NIMH Psychoactive Drug Screening Program, University of North Carolina at Chapel Hill
Excerpt: as §2, §3, §4, §5, §6, §7, §8

Histamine H3 = biological target: T5, Histamine H3 (Homo sapiens, UniProt Q9Y5N1); test: as above; type: cell-based
T5 construct: NIMH Psychoactive Drug Screening Program, University of North Carolina at Chapel Hill
Excerpt: Supplementary Figure 5. Assessment of GPCR functional activity. GloSensor® assay was
as §3, §4, §5, §6, §7, §8

T4 sequence (P35372 whole entry): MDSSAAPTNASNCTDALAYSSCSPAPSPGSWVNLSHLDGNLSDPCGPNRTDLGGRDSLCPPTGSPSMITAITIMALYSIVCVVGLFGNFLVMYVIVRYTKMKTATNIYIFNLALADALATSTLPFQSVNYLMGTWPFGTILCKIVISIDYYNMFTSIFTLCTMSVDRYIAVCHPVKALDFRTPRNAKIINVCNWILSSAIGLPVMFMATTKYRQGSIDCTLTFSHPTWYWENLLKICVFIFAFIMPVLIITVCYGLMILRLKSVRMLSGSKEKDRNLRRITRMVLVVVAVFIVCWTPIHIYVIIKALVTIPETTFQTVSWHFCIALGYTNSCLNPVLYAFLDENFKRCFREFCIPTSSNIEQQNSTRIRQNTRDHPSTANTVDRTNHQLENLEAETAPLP
T1 sequence (P18089 whole entry): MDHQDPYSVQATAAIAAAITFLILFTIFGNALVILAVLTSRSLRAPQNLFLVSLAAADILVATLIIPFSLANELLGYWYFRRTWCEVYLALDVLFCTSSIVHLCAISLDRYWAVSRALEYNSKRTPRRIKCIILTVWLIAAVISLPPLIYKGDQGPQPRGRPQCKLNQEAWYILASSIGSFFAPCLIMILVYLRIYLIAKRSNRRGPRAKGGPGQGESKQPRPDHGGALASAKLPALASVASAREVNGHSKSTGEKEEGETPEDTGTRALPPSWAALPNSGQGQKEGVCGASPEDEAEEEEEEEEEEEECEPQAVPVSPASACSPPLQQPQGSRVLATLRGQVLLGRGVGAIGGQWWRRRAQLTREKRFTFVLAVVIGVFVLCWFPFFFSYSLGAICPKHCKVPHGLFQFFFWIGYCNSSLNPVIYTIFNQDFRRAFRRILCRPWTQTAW
PRDM11, sequence (Q9NQV5 whole entry): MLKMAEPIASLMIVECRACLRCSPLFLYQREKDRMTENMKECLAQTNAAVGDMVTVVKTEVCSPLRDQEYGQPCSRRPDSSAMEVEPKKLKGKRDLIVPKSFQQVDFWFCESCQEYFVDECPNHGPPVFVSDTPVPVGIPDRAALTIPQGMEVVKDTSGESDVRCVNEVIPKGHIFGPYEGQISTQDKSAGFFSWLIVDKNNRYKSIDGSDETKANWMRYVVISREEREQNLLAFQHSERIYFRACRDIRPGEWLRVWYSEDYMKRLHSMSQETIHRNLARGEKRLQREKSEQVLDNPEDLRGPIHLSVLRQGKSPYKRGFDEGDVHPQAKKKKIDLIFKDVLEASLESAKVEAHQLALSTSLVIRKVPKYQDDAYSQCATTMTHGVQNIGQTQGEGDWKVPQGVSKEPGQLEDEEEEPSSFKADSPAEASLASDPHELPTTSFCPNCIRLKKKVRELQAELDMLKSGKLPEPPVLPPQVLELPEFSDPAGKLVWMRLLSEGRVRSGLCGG
PRDM3, sequence (Q03112 whole entry): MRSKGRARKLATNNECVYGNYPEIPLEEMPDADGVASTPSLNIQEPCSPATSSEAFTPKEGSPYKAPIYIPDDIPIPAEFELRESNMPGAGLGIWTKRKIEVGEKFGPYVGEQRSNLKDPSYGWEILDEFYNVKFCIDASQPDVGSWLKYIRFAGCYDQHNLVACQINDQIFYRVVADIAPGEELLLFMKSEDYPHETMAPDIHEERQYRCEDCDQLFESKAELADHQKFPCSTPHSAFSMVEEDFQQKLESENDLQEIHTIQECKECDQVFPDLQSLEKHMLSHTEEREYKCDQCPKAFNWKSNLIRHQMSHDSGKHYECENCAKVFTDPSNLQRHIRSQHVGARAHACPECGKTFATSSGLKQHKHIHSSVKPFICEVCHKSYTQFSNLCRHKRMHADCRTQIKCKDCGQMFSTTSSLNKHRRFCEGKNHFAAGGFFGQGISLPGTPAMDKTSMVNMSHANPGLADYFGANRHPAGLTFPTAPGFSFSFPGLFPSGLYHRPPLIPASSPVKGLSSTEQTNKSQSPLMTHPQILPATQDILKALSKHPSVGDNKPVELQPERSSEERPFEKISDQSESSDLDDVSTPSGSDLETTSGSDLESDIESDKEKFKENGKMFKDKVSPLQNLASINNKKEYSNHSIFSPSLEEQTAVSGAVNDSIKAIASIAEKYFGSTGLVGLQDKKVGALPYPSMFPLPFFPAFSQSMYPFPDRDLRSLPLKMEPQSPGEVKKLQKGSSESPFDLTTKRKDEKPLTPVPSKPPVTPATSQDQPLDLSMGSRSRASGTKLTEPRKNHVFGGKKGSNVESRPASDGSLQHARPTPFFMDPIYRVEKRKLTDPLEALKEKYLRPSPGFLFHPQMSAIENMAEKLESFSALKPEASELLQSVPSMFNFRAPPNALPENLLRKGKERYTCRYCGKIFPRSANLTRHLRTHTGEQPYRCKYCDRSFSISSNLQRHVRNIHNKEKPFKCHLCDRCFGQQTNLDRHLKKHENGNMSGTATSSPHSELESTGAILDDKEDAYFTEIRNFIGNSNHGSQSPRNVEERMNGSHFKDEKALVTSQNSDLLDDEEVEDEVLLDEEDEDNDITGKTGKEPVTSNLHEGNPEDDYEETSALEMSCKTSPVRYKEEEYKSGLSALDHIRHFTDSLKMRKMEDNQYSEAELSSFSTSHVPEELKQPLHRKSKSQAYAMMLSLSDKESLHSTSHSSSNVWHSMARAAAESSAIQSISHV
PRDM1, sequence (O75626 whole entry): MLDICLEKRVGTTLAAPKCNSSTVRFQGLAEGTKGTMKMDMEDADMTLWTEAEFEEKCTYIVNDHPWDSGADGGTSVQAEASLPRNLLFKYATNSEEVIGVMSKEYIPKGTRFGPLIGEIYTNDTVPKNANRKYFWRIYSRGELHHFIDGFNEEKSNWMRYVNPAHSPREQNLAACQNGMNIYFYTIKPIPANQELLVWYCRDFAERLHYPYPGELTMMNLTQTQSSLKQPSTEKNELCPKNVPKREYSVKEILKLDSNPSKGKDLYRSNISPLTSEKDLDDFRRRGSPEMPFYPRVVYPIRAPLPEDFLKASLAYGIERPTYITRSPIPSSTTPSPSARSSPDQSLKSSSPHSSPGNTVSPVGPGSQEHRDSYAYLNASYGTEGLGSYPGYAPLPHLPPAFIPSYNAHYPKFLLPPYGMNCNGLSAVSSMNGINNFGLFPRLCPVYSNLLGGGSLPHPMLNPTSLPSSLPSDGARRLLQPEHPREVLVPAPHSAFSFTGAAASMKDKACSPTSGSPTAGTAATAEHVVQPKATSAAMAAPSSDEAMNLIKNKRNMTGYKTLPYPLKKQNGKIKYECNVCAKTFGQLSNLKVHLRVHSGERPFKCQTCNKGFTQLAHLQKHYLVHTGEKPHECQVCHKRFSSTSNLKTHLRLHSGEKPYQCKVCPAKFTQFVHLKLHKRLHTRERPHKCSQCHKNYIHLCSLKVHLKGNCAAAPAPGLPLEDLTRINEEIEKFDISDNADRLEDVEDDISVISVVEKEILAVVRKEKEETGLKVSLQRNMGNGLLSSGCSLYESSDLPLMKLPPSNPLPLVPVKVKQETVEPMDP
PRDM13, sequence (Q9H4Q3 whole entry): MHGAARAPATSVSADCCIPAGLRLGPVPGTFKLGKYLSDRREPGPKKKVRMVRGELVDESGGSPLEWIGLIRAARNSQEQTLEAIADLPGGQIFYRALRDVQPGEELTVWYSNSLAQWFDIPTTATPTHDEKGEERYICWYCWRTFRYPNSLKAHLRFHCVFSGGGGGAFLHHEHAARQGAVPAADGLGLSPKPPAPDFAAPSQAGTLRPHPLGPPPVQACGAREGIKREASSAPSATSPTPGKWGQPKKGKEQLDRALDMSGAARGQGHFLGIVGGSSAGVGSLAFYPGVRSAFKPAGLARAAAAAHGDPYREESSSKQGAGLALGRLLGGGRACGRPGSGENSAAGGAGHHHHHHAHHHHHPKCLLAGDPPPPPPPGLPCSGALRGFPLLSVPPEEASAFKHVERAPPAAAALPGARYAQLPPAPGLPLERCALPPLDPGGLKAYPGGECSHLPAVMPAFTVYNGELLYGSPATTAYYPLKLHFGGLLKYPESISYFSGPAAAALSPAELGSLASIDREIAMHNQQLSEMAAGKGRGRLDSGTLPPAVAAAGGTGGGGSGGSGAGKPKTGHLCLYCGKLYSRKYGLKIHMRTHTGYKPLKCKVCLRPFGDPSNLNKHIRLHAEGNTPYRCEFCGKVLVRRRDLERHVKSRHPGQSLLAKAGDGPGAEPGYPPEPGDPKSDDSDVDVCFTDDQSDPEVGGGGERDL
PRDM8, sequence (Q9NQV8 whole entry): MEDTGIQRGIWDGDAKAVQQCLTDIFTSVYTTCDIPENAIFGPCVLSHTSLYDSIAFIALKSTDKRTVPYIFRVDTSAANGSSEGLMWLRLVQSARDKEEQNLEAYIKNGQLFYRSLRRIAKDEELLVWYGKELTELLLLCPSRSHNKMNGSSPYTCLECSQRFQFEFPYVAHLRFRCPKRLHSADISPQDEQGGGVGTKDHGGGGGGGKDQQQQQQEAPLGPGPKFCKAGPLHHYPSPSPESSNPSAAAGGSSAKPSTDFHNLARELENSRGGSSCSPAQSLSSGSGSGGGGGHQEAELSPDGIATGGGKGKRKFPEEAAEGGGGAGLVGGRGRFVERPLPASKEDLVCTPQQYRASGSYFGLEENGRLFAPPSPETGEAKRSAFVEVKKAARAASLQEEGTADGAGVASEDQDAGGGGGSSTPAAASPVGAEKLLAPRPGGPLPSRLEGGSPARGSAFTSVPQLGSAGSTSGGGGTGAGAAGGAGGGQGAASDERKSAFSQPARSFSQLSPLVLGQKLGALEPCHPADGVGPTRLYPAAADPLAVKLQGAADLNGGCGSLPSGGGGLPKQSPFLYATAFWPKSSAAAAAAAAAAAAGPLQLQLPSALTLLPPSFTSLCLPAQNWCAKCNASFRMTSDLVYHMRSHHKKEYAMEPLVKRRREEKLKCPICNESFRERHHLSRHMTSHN
T3 sequence (P35372 whole entry): as the sequence (P35372 whole entry) above

Structure (SMILES): COc1cc(OC)cc(-c2noc(N3CCN(C)C4(CCN(c5ccnc(C)c5)CC4)C3)n2)c1 [MRK-740]
- ∆ Tm (°C), DSF (PRDM1): -0.458 °C
- ∆ Tm (°C), DSF (PRDM10): -0.4 °C
- ∆ Tm (°C), DSF (PRDM11): -0.536 °C
- ∆ Tm (°C), DSF (PRDM12): -0.9 °C
- ∆ Tm (°C), DSF (PRDM13): -1.0 °C
- ∆ Tm (°C), DSF (PRDM14): -2.3 °C
- ∆ Tm (°C), DSF (PRDM16): -0.225 °C
- ∆ Tm (°C), DSF (PRDM2): -1.1 °C
- ∆ Tm (°C), DSF (PRDM3): -1.3 °C
- ∆ Tm (°C), DSF (PRDM6): -0.633 °C
- ∆ Tm (°C), DSF (PRDM8): 1.4 °C
- Binding (Adrenergic α2B [1]): > 50%
- Binding (Muscarinic M2): > 50%
- Binding (Opiate µ receptor): > 50%
- Functional activity (in words) (Adrenergic α2B [2]): no functional activity
- Functional activity (in words) (Opiate µ receptor (MOR); agonist and antagonist mode): some potential agonistic activity
- MOR Gi Agonist, raw signal (Opiate µ receptor (MOR); log[MRK-740] -4.52): 523.998 and 475.715 and 479.854
- MOR Tango Antagonist, raw signal (Opiate µ receptor (MOR); log[MRK-740] -4.52): 6964.63 and 7700.23 and 6817.3 and 8343.47
- MOR Gi Agonist, raw signal (Opiate µ receptor (MOR); log[MRK-740] -5): 470.197 and 394.324 and 410.878
- MOR Tango Antagonist, raw signal (Opiate µ receptor (MOR); log[MRK-740] -5): 5111.95 and 4601.78 and 6359.89 and 4362.1
- MOR Gi Agonist, raw signal (Opiate µ receptor (MOR); log[MRK-740] -5.52): 427.432 and 384.668 and 477.095
- MOR Tango Antagonist, raw signal (Opiate µ receptor (MOR); log[MRK-740] -5.52): 5940.98 and 5705.68 and 7225.22 and 4368.69
- MOR Gi Agonist, raw signal (Opiate µ receptor (MOR); log[MRK-740] -6): 441.227 and 430.191 and 452.263
- MOR Tango Antagonist, raw signal (Opiate µ receptor (MOR); log[MRK-740] -6): 5577.04 and 4612.78 and 4219.16 and 5663.9
- MOR Gi Agonist, raw signal (Opiate µ receptor (MOR); log[MRK-740] -6.52): 489.51 and 460.54 and 466.058
- MOR Tango Antagonist, raw signal (Opiate µ receptor (MOR); log[MRK-740] -6.52): 4965.72 and 6716.14 and 4770.01 and 6856.88
- MOR Gi Agonist, raw signal (Opiate µ receptor (MOR); log[MRK-740] -7): 347.421 and 472.956 and 397.083
- MOR Tango Antagonist, raw signal (Opiate µ receptor (MOR); log[MRK-740] -7): 4544.61 and 3827.75 and 5625.42 and 6334.6
- MOR Gi Agonist, raw signal (Opiate µ receptor (MOR); log[MRK-740] -7.52): 452.263 and 417.776 and 391.565
- MOR Tango Antagonist, raw signal (Opiate µ receptor (MOR); log[MRK-740] -7.52): 9293.5 and 6501.73 and 7215.33 and 6591.89
- MOR Gi Agonist, raw signal (Opiate µ receptor (MOR); log[MRK-740] -8): 452.263 and 390.186 and 408.119
- MOR Tango Antagonist, raw signal (Opiate µ receptor (MOR); log[MRK-740] -8): 5778.25 and 5276.87 and 5467.09 and 6480.84
- MOR Gi Agonist, raw signal (Opiate µ receptor (MOR); log[MRK-740] -8.52): 394.631 and 390.374 and 448.545
- MOR Tango Antagonist, raw signal (Opiate µ receptor (MOR); log[MRK-740] -8.52): 5605.48 and 3120.04 and 6717.48 and 4672.02
- MOR Gi Agonist, raw signal (Opiate µ receptor (MOR); log[MRK-740] -9): 413.075 and 366.255 and 451.383
- MOR Tango Antagonist, raw signal (Opiate µ receptor (MOR); log[MRK-740] -9): 3692.19 and 5665.93 and 3690.78 and 6270.43
- MOR Gi Agonist, raw signal (Opiate µ receptor (MOR); log[MRK-740] -9.52): 424.425 and 437.195 and 438.613
- MOR Tango Antagonist, raw signal (Opiate µ receptor (MOR); log[MRK-740] -9.52): 5109.22 and 7289.66 and 4705.76 and 4478.02
- MOR Gi Agonist, raw signal (Opiate µ receptor (MOR); log[MRK-740] -10): 492.528 and 401.725 and 449.964
- MOR Tango Antagonist, raw signal (Opiate µ receptor (MOR); log[MRK-740] -10): 3780.75 and 4352.9 and 3641.58 and 3605.03
- MOR Gi Agonist, raw signal (Opiate µ receptor (MOR); log[MRK-740] -10.52): 408.819 and 508.135 and 464.152
- MOR Tango Antagonist, raw signal (Opiate µ receptor (MOR); log[MRK-740] -10.52): 4105.49 and 4174.37 and 7219.37 and 6121.41
- MOR Gi Agonist, raw signal (Opiate µ receptor (MOR); log[MRK-740] -11): 516.647 and 510.972 and 540.767
- MOR Tango Antagonist, raw signal (Opiate µ receptor (MOR); log[MRK-740] -11): 4295.27 and 3517.87 and 4659.37 and 5872.58
- MOR Gi Agonist, raw signal (Opiate µ receptor (MOR); log[MRK-740] -11.52): 627.314 and 488.271 and 566.306
- MOR Tango Antagonist, raw signal (Opiate µ receptor (MOR); log[MRK-740] -11.52): 8307.51 and 6114.38 and 4948.96 and 5192.17
- MOR Gi Agonist, raw signal (Opiate µ receptor (MOR); log[MRK-740] -12): 684.066 and 560.63 and 516.647
- MOR Tango Antagonist, raw signal (Opiate µ receptor (MOR); log[MRK-740] -12): 4510.35 and 4657.96 and 5814.94 and 6055.34
- Functional activity (in words) (Histamine H3): no functional activity

Reference: article PMC6917776, “Discovery of a chemical probe for PRDM9” (Nature Communications, 2019)
